Residues, ends and D or L forms follow the SMILES beside them.
Legend:
[1] = system: Fibroblasts of human origin; test: Fibroblast cytotoxicity test (MTT); type: cell-based; conditions: 24 h, OD 490 nm
Procedure: A. Fibroblast cytotoxicity test
Test materials: Fibroblasts of human origin (Guangdong Boxi Biotechnology Co., Ltd., Lot No. Fb20081902), DMEM culture medium (Gibco, 23042301, expiration date on 230522), PBS (Solarbio, P1010), MTT (Sigma, M5655), DMSO (Sigma, D4540-1L), CO2 incubator (Thermo, 150I), super-clean bench (AIRTECH, SW-CJ-1F), inverted microscope (Olympus, CKX53).
Test methods: • 1) Cell inoculation: After cell resuscitation, the cells were inoculated into 96-well plates when the plating rate reached around 60%, and were incubated overnight in an incubator (37°C, 5% CO2). • 2) Test grouping: The blank group, solvent control group, positive control group, and sample group were set for the test. In the sample group, 7 concentration gradients were set for each sample and 3 duplicate wells were set for each concentration gradient. • 3) Formulation of solutions: Sample working solutions at different concentrations were formulated based on the test concentrations of 0.0781 µM, 0.1563 µM, 0.3125 µM, 0.625 µM, 1.25 µM, 2.5 µM, and 5 µM. • 4) Administration: Administration was performed when the cell plating rate in the 96-well plates reached 50% to 60%. 200 µL of culture medium per well was added for the solvent control group; 200 µL of culture medium containing 10% DMSO per well was added for the positive control group; 200 µL of culture medium containing the sample at a corresponding concentration per well was added for the sample group; The blank group had no cell inoculation, for which only 200 µL of cell culture medium was added. After the administration was complete, the 96-well plates were incubated in an incubator (37°C, 5% CO2) for 24 h. • 5) Detection: After 24 h of cell incubation and culture, the supernatant was discarded, and MTT working solution (0.5 mg/mL) was added. Incubation was performed at 37°C for 4 h in the dark. After the incubation was completed, the supernatant was discarded and 150 µL DMSO was added to each well. The OD value was read at 490 nm. • 6) Calculation of relative viability of cells: Calculation was performed according to the formula below: Relative viability of cells = (Sample well OD−Blank well OD)/(Solvent control well OD−Blank well OD) × 100%. [formula]

elastin (ELN) = test: Elastin (ELN) elevation effect in fibroblasts (ELISA); type: cell-based, human; set-up: Elastin elevation effect in the fibroblasts: unit not given here; conditions: 1 µM, 24 h
Excerpt: (§1) B. Collagen I (type I collagen) elevation effect in fibroblasts, hyaluronic acid (HA) elevation effect in fibroblasts, and elastin (ELN) elevation effect in fibroblasts
(§2) Test materials: Fibroblasts of human origin (Guangdong Boxi Biotechnology Co., Ltd., Lot No. Fb20081902), DMEM culture medium (Gibco, 23042301, expiration date 230522), PBS (Solarbio, P1010), TGF-β1 (Peprotech, 230504), Collagen I ELISA Kit (Cusabio, B21025824), Elastin ELISA kit (Abcam, GR3446070-2), HA ELISA kit (RD, P325066). CO2 incubator (Thermo, 1501), super-clean bench (AIRTECH, SW-CJ-1F), microplate reader (BioTek, Epoch).
(§3) Test methods: • 1) Inoculation: After cell resuscitation, the cells were inoculated into 6-well plates when the plating rate reached around 60%, and were incubated overnight in an incubator (37°C, 5% CO2). • 2) Formulation of solutions: The cyclic peptide compounds in the sample group, PC2 (Biotinoyl-GHK, [drawing 2] ) and PC3 [drawing 3] in the positive reference group were all at the concentration of 1 µM, and the test substance working solutions were formulated. Only the cell culture medium was added for the blank control group (BC). • 3) Administration: When the cell plating rate in the 6-well plates reached 40% to 60%, administration was performed at 2 mL per well. 3 duplicate wells were set for each group. Incubation was performed in an incubator (37°C, 5% CO2) for 24 h. • 4) ELISA assay: The ELISA assay was performed according to the instructions of the ELISA kit, with the detection indicators being Collagen I elevation effect in the fibroblasts, HA elevation effect in the fibroblasts, and elastin elevation effect in the fibroblasts.

hyaluronic acid (HA) = test: Hyaluronic acid (HA) elevation effect in fibroblasts (ELISA); type: cell-based, human; set-up: HA elevation effect in the fibroblasts: unit not given here; conditions: 1 µM, 24 h
Excerpt: as §1, §2, §3

[2] = system: Collagen I (type I collagen); test: Collagen I elevation effect in fibroblasts (ELISA); type: cell-based, human; conditions: 1 µM, 24 h; result in words
Excerpt: as §1, §2, §3

`CC(C)C[C@@H]1NC(=O)[C@H](Cc2ccccc2)NC(=O)[C@H](CC(C)C)NC(=O)[C@H](CCCCN)NC(=O)[C@H](Cc2c[nH]cn2)NC(=O)CNC1=O` [compound 292] (cyclo(FLGHKL)) was tested, and the “Relative viability of cells” value ([1]; 0.0781 µM) was 107.68%, the “Relative viability of cells” value ([1]; 0.1563 µM) was 107.63% and the “Relative viability of cells” value ([1]; 0.3125 µM) was 105.05%. The “Relative viability of cells” value ([1]; 0.625 µM) was 102.37%, the “Relative viability of cells” value ([1]; 1.25 µM) was 102.07% and the “Relative viability of cells” value ([1]; 2.5 µM) was 102.88%. The “Relative viability of cells” value ([1]; 5 µM) was 102.88%, the “Elastin elevation effect in the fibroblasts” value (elastin (ELN); ELISA, Blank control (BC) 756.52) was 1278.99 and the “elastin content compared to the BC” value (elastin (ELN); result in words) was “significant increase”. The “HA elevation effect in the fibroblasts” value (hyaluronic acid (HA); ELISA, Blank control (BC) 1402.44) was 2635.98, the “hyaluronic acid (HA) content compared to the BC” value (hyaluronic acid (HA); result in words) was “significant increase” and the “type I collagen (Collagen I) content compared to the BC” value [2] was “significant increase”.
